This note sets out measurements from patent US9283222B2 (priority 2006, dated 2016).

The test has as its target Recombinant Human Poly(ADP-Ribose) Polymerase (PARP), PARP-1 (Homo sapiens (Human), UniProt P09874). The note with it: read-out: PARP-1 (Ki); Table 1; text calls the values EC50s.

As usually defined, the pKi is −log10 of the Ki, conventionally taken in molar units.

pKi: −log10 of the molar value.

Sequence of Recombinant Human Poly(ADP-Ribose) Polymerase (PARP), PARP-1 (P09874 whole entry): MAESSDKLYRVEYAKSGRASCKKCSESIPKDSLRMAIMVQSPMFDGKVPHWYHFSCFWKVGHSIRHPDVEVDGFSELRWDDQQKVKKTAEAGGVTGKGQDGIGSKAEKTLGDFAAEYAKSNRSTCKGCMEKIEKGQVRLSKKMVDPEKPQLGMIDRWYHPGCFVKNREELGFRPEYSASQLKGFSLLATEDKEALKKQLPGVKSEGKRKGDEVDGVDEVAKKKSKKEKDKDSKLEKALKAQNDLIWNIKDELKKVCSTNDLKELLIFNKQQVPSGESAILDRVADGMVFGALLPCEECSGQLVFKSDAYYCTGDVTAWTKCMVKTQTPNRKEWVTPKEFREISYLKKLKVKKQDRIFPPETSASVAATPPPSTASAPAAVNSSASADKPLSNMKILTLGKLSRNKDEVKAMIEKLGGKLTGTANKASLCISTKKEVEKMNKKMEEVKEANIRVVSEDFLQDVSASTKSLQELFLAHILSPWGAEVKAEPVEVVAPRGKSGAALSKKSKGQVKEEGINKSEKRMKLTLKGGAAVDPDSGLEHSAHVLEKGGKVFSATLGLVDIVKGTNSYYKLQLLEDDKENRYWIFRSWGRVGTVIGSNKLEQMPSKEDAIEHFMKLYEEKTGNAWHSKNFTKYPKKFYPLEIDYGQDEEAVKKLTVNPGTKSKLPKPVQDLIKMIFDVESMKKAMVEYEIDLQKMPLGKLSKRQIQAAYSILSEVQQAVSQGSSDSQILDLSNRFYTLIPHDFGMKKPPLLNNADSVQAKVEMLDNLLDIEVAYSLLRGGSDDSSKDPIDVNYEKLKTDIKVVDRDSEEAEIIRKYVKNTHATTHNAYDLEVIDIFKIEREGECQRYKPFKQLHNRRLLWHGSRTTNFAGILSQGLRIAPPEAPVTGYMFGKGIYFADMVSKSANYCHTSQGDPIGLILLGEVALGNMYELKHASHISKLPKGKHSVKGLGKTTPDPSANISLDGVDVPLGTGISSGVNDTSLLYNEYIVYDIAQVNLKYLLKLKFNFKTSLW

On to `O=C(CCOc1ccccc1)Nc1cccc(Cc2n[nH]c(=O)c3c2CCCC3)c1` [Example 153, N-(3-((4-oxo-3,4,5,6,7,8-hexahydrophthalazin-1-yl)methyl)phenyl)-3-phenoxypropanamide], for which the pKi is 8.22.

As for `O=C(CCCc1cccs1)Nc1cccc(Cc2n[nH]c(=O)c3c2CCCC3)c1` [Example 154, N-(3-((4-oxo-3,4,5,6,7,8-hexahydrophthalazin-1-yl)methyl)phenyl)-4-thien-2-ylbutanamide], the negative-log Ki (pKi) is 7.25.

For `CC(=O)N1CCC(C(=O)Nc2cccc(Cc3n[nH]c(=O)c4c3CCCC4)c2)CC1` [Example 155, 1-acetyl-N-(3-((4-oxo-3,4,5,6,7,8-hexahydrophthalazin-1-yl)methyl)phenyl)piperidine-4-carboxamide], the pKi was 6.90.

Consider `O=C(Cc1cc(F)cc(F)c1)Nc1cccc(Cc2n[nH]c(=O)c3c2CCCC3)c1` [Example 156, 2-(3,5-difluorophenyl)-N-(3-((4-oxo-3,4,5,6,7,8-hexahydrophthalazin-1-yl)methyl)phenyl)acetamide], for which the pKi was 7.60.

Take `CC(=O)N[C@@H](CC(C)C)C(=O)Nc1cccc(Cc2n[nH]c(=O)c3c2CCCC3)c1` [Example 157]: the pKi was 6.91.

`CCCN(CCC)[C@@H](C)C(=O)Nc1cccc(Cc2n[nH]c(=O)c3c2CCCC3)c1` [Example 158]: the pKi was 5.80.

With `O=C(CNC(=O)c1ccccc1)Nc1cccc(Cc2n[nH]c(=O)c3c2CCCC3)c1` [Example 160, N-(2-oxo-2-(3-((4-oxo-3,4,5,6,7,8-hexahydrophthalazin-1-yl)methyl)phenylamino)ethyl)benzamide], the negative logarithm of the Ki (pKi) was 7.96.

For the compound `COc1cccc(CCC(=O)Nc2cccc(Cc3n[nH]c(=O)c4c3CCCC4)c2)c1` [Example 161, 3-(3-methoxyphenyl)-N-(3-((4-oxo-3,4,5,6,7,8-hexahydrophthalazin-1-yl)methyl)phenyl)propanamide], the pKi was 7.19.

Turning to `COc1ccc(CCC(=O)Nc2cccc(Cc3n[nH]c(=O)c4c3CCCC4)c2)cc1` [Example 162, 3-(4-methoxyphenyl)-N-(3-((4-oxo-3,4,5,6,7,8-hexahydrophthalazin-1-yl)methyl)phenyl)propanamide], the pKi is 7.29.

In the case of `Cc1ccc(OCC(=O)Nc2cccc(Cc3n[nH]c(=O)c4c3CCCC4)c2)cc1C` [Example 163, 2-(3,4-dimethylphenoxy)-N-(3-((4-oxo-3,4,5,6,7,8-hexahydrophthalazin-1-yl)methyl)phenyl)acetamide], the pKi was 7.46.

On to `O=C(Nc1cccc(Cc2n[nH]c(=O)c3c2CCCC3)c1)[C@H](O)CCc1ccccc1` [Example 164, (2R)-2-hydroxy-N-(3-((4-oxo-3,4,5,6,7,8-hexahydrophthalazin-1-yl)methyl)phenyl)-4-phenylbutanamide], for which the pKi was 7.55.

As for `O=C(CCCOc1ccccc1)Nc1cccc(Cc2n[nH]c(=O)c3c2CCCC3)c1` [Example 165, N-(3-((4-oxo-3,4,5,6,7,8-hexahydrophthalazin-1-yl)methyl)phenyl)-4-phenoxybutanamide], the pKi was 7.85.

With `O=C(CCC(=O)c1cccs1)Nc1cccc(Cc2n[nH]c(=O)c3c2CCCC3)c1` [Example 166, 4-oxo-N-(3-((4-oxo-3,4,5,6,7,8-hexahydrophthalazin-1-yl)methyl)phenyl)-4-thien-2-ylbutanamide], the negative-log Ki (pKi) was 8.30.

`Cc1ccnc(SCC(=O)Nc2cccc(Cc3n[nH]c(=O)c4c3CCCC4)c2)n1` [Example 167, 2-((4-methylpyrimidin-2-yl)thio)-N-(3-((4-oxo-3,4,5,6,7,8-hexahydrophthalazin-1-yl)methyl)phenyl)acetamide]: the negative-log Ki (pKi) was 7.25.

Take `O=C(CCc1ccccc1Cl)Nc1cccc(Cc2n[nH]c(=O)c3c2CCCC3)c1` [Example 168, 3-(2-chlorophenyl)-N-(3-((4-oxo-3,4,5,6,7,8-hexahydrophthalazin-1-yl)methyl)phenyl)propanamide]: the pKi was 6.90.

Regarding `O=C(CCc1ccc(Cl)cc1)Nc1cccc(Cc2n[nH]c(=O)c3c2CCCC3)c1` [Example 169, 3-(4-chlorophenyl)-N-(3-((4-oxo-3,4,5,6,7,8-hexahydrophthalazin-1-yl)methyl)phenyl)propanamide], the negative-log Ki (pKi) is 7.00.

For the compound `CCC(C)C(C(=O)Nc1cccc(Cc2n[nH]c(=O)c3c2CCCC3)c1)c1ccccc1` (stereo not shown) [Example 170, 3-methyl-N-(3-((4-oxo-3,4,5,6,7,8-hexahydrophthalazin-1-yl)methyl)phenyl)-2-phenylpentanamide], the pKi is 5.77.

With `Cc1cc(Cl)ccc1OCC(=O)Nc1cccc(Cc2n[nH]c(=O)c3c2CCCC3)c1` [Example 171, 2-(4-chloro-2-methylphenoxy)-N-(3-((4-oxo-3,4,5,6,7,8-hexahydrophthalazin-1-yl)methyl)phenyl)acetamide], the pKi was 7.25.

With `O=C(CCCC(=O)Nc1cccc(Cc2n[nH]c(=O)c3c2CCCC3)c1)Nc1ccccc1` [Example 172, N-(3-((4-oxo-3,4,5,6,7,8-hexahydrophthalazin-1-yl)methyl)phenyl)-N′-phenylpentanediamide], the pKi was 8.52.

Take `COc1ccc(C(=O)CCC(=O)Nc2cccc(Cc3n[nH]c(=O)c4c3CCCC4)c2)cc1` [Example 173, 4-(4-methoxyphenyl)-4-oxo-N-(3-((4-oxo-3,4,5,6,7,8-hexahydrophthalazin-1-yl)methyl)phenyl)butanamide]: the negative logarithm of the Ki (pKi) was 8.70.

Turning to `O=C(Nc1cccc(Cc2n[nH]c(=O)c3c2CCCC3)c1)C(c1ccccc1)c1ccccc1` [Example 174, N-(3-((4-oxo-3,4,5,6,7,8-hexahydrophthalazin-1-yl)methyl)phenyl)-2,2-diphenylacetamide], the pKi was 6.18.

For the compound `O=C(CCS(=O)(=O)c1ccccc1)Nc1cccc(Cc2n[nH]c(=O)c3c2CCCC3)c1` [Example 175, N-(3-((4-oxo-3,4,5,6,7,8-hexahydrophthalazin-1-yl)methyl)phenyl)-3-(phenylsulfonyl)propanamide], the pKi is 7.68.

Turning to `O=C(Cc1cccc(Oc2ccccc2)c1)Nc1cccc(Cc2n[nH]c(=O)c3c2CCCC3)c1` [Example 176, N-(3-((4-oxo-3,4,5,6,7,8-hexahydrophthalazin-1-yl)methyl)phenyl)-2-(3-phenoxyphenyl)acetamide], the pKi was 7.37.

For the compound `CCc1ccc(C(=O)Nc2cccc(Cc3n[nH]c(=O)c4c3CCCC4)c2)cc1` [Example 177, 4-ethyl-N-(3-((4-oxo-3,4,5,6,7,8-hexahydrophthalazin-1-yl)methyl)phenyl)benzamide], the negative-log Ki (pKi) was 6.81.

Regarding `Cc1c(F)cccc1C(=O)Nc1cccc(Cc2n[nH]c(=O)c3c2CCCC3)c1` [Example 178, 3-fluoro-2-methyl-N-(3-((4-oxo-3,4,5,6,7,8-hexahydrophthalazin-1-yl)methyl)phenyl)benzamide], the negative-log Ki (pKi) is 6.34.

With `Cc1ccc(F)cc1C(=O)Nc1cccc(Cc2n[nH]c(=O)c3c2CCCC3)c1` [Example 179, 5-fluoro-2-methyl-N-(3-((4-oxo-3,4,5,6,7,8-hexahydrophthalazin-1-yl)methyl)phenyl)benzamide], the pKi is 6.62.

In the case of `Cc1ccc(C(=O)Nc2cccc(Cc3n[nH]c(=O)c4c3CCCC4)c2)cc1F` [Example 180, 3-fluoro-4-methyl-N-(3-((4-oxo-3,4,5,6,7,8-hexahydrophthalazin-1-yl)methyl)phenyl)benzamide], the pKi is 6.80.

On to `O=C(Nc1cccc(Cc2n[nH]c(=O)c3c2CCCC3)c1)c1cccc(F)c1F` [Example 181, 2,3-difluoro-N-(3-((4-oxo-3,4,5,6,7,8-hexahydrophthalazin-1-yl)methyl)phenyl)benzamide], for which the pKi was 6.67.

Regarding `O=C(Nc1cccc(Cc2n[nH]c(=O)c3c2CCCC3)c1)c1ccc(F)cc1F` [Example 182, 2,4-difluoro-N-(3-((4-oxo-3,4,5,6,7,8-hexahydrophthalazin-1-yl)methyl)phenyl)benzamide], the pKi was 6.53.

Turning to `O=C(Nc1cccc(Cc2n[nH]c(=O)c3c2CCCC3)c1)c1cc(F)ccc1F` [Example 183, 2,5-difluoro-N-(3-((4-oxo-3,4,5,6,7,8-hexahydrophthalazin-1-yl)methyl)phenyl)benzamide], the pKi was 6.78.

`O=C(Nc1cccc(Cc2n[nH]c(=O)c3c2CCCC3)c1)c1cc(F)cc(F)c1` [Example 184, 3,5-difluoro-N-(3-((4-oxo-3,4,5,6,7,8-hexahydrophthalazin-1-yl)methyl)phenyl)benzamide]: the pKi is 6.81.

On to `CCCc1ccc(C(=O)Nc2cccc(Cc3n[nH]c(=O)c4c3CCCC4)c2)cc1` [Example 185, N-(3-((4-oxo-3,4,5,6,7,8-hexahydrophthalazin-1-yl)methyl)phenyl)-4-propylbenzamide], for which the negative-log Ki (pKi) was 6.60.

As to `CC(C)c1ccc(C(=O)Nc2cccc(Cc3n[nH]c(=O)c4c3CCCC4)c2)cc1` [Example 186, 4-isopropyl-N-(3-((4-oxo-3,4,5,6,7,8-hexahydrophthalazin-1-yl)methyl)phenyl)benzamide], the pKi is 6.80.

Take `CCOc1ccccc1C(=O)Nc1cccc(Cc2n[nH]c(=O)c3c2CCCC3)c1` [Example 187, 2-ethoxy-N-(3-((4-oxo-3,4,5,6,7,8-hexahydrophthalazin-1-yl)methyl)phenyl)benzamide]: the pKi is 5.90.

For `CC(C)Oc1ccc(C(=O)Nc2cccc(Cc3n[nH]c(=O)c4c3CCCC4)c2)cc1` [Example 188, 4-isopropoxy-N-(3-((4-oxo-3,4,5,6,7,8-hexahydrophthalazin-1-yl)methyl)phenyl)benzamide], the pKi is 6.73.

Take `CCN(CC)c1ccc(C(=O)Nc2cccc(Cc3n[nH]c(=O)c4c3CCCC4)c2)cc1` [Example 189, 4-(diethylamino)-N-(3-((4-oxo-3,4,5,6,7,8-hexahydrophthalazin-1-yl)methyl)phenyl)benzamide]: the pKi is 6.76.

`CCCCOc1ccc(C(=O)Nc2cccc(Cc3n[nH]c(=O)c4c3CCCC4)c2)cc1` [Example 190, 4-butoxy-N-(3-((4-oxo-3,4,5,6,7,8-hexahydrophthalazin-1-yl)methyl)phenyl)benzamide]: the negative-log Ki (pKi) is 6.58.
